Structures are written as SMILES. Converted amounts (≈) assume the structure as drawn. Read-outs that look alike come from different tables or passages of the source.

Data set [1] relates to TK– VZV 07-1 strain. Description: microbe, parasite or virus in culture. Format: cell-based, varicella-zoster virus. The note with it: Human alphaherpesvirus 3, HEL, read-out: Antiviral Activity EC50 TK– VZV Strain (07-1).
Data set [2] deals with S. aureus ATCC 2593. Put plainly: Broth microdilution MIC/MBC. Conditions: Staphylococcus aureus, ATCC2593, 24 h, read-out: MIC = MBC. (In broth dilution the organism is exposed to a series of concentrations in liquid medium.)
Data set [3] relates to E. coli ATCC 25922. Put plainly: Broth microdilution MIC/MBC. Conditions: Escherichia coli.
Data set [4] relates to P. aeruginosa ATCC 27853. Description: Broth microdilution MIC/MBC. The note with it: Pseudomonas aeruginosa, ATCC27853, 24 h, read-out: MIC = MBC.
Data set [5] has as its system B. cereus PCM 1948. Description: Broth microdilution MIC/MBC. The note with it: Bacillus cereus, PCM1948, 24 h, read-out: MIC = MBC.
For data set [6], the system named is TK+ VZV OKA strain. Description: microbe, parasite or virus in culture. Conditions: Human alphaherpesvirus 3, HEL, read-out: Antiviral Activity EC50 TK+ VZV Strain (OKA). The data set is classed as cell-based, varicella-zoster virus.
The subject of data set [7] is C. albicans ATCC 10241. Put plainly: Broth microdilution MIC/MBC (antifungal). The note with it: Candida albicans, ATCC10241, read-out: MIC = MBC.
Data set [8] has as its system E. faecalis ATCC 29212. Put plainly: Broth microdilution MIC/MBC. Conditions: Enterococcus faecalis, ATCC29212, 24 h.
The test system of data set [9] is human embryonic lung (HEL) cells. Conditions: minimum cytotoxic concentration causing microscopically detectable alteration of cell morphology.
Data set [10] concerns A. brasiliensis ATCC 16404. Description: Broth microdilution MIC/MBC (antifungal). Conditions: Aspergillus brasiliensis, ATCC16404, 72 h, read-out: MIC = MBC.
The mark [11] stands for this setting: ATCC25922, 24 h, read-out: MIC = MBC.

Usually EC50 stands for the concentration that produces a half-maximal response. A word on the MIC: it is the lowest concentration found to suppress growth. Broadly, the MBC is the smallest concentration meeting the test's criterion for killing. Low readings indicate more potent killing, high ones less potent killing. `CCOP(=O)(OCC)[C@H]1C[C@H](Cn2c(=O)c3ccccc3n(Cc3ccccc3)c2=O)ON1Cc1ccccc1` (relative stereo) [Diethyl trans-(2-benzyl-5-((1-benzyl-2,4-dioxo-1,4-dihydroquinazolin-3(2H)-yl)methyl)isoxazolidin-3-yl)phosphonate]: the results for the EC50 in data set [1] and in data set [6] were 34.2 µM and 14.5 µM, respectively. In addition, the MIC in data set [2] is 5000 µg/mL (≈ 8.87 mM); in data set [3] (setting [11]), 2500 µg/mL (≈ 4.44 mM); in data set [4], 2500 µg/mL (≈ 4.44 mM); in [5] it was 1250 µg/mL (≈ 2.22 mM); in data set [7] it was 5000 µg/mL (≈ 8.87 mM); in [8], over 5000 µg/mL. Besides, the minimal inhibitory concentration (MIC) in [10] amounted to 5000 µg/mL (≈ 8.87 mM). The MBC in data set [8] was over 5000 µg/mL. For the same compound, the “Cytotoxicity Cell Morphology MCC” value in [9] amounted to 100 μM.
For `CCOP(=O)(OCC)[C@H]1C[C@H](Cn2c(=O)c3ccccc3n(Cc3ccccc3F)c2=O)ON1C` (relative stereo) [Diethyl trans-(5-((1-(2-fluorobenzyl)-2,4-dioxo-1,4-dihydroquinazolin-3(2H)-yl)methyl)-2-methylisoxazolidin-3-yl)phosphonate], the EC50 in data set [1] amounted to 58.5 µM; in data set [6], 31.7 µM. The MIC in data set [2] was 5000 µg/mL (≈ 9.89 mM); in [3] (setting [11]), 2500 µg/mL (≈ 4.95 mM); in data set [4] it was 2500 µg/mL (≈ 4.95 mM); in data set [5], 1250 µg/mL (≈ 2.47 mM); in data set [7], 2500 µg/mL (≈ 4.95 mM); in data set [8], over 5000 µg/mL. Also, the MIC in [10] came to 5000 µg/mL (≈ 9.89 mM). Moreover, the minimum bactericidal concentration (MBC) in [8] was over 5000 µg/mL. Besides, in data set [9], the “Cytotoxicity Cell Morphology MCC” value is over 100 μM.
Turning to `CCOP(=O)(OCC)[C@H]1C[C@H](Cn2c(=O)c3ccccc3n(Cc3ccc(F)cc3)c2=O)ON1C` (relative stereo) [Diethyl trans-(5-((1-(4-fluorobenzyl)-2,4-dioxo-1,4-dihydroquinazolin-3(2H)-yl)methyl)-2-methylisoxazolidin-3-yl)phosphonate], the 50% effective concentration (EC50) in data set [1] is 38.1 µM; in [6], 58.5 µM. Besides, the MIC in [2] was 5000 µg/mL (≈ 9.89 mM); in data set [3] (setting [11]), 2500 µg/mL (≈ 4.95 mM); in [4], 2500 µg/mL (≈ 4.95 mM); in data set [5], 1250 µg/mL (≈ 2.47 mM); in data set [7], 2500 µg/mL (≈ 4.95 mM); in data set [8], over 5000 µg/mL. Further, the MIC in data set [10] is 5000 µg/mL (≈ 9.89 mM). Besides, in data set [8], the minimal bactericidal concentration (MBC) was over 5000 µg/mL. In [9], the “Cytotoxicity Cell Morphology MCC” value is recorded as over 100 μM.
Turning to `C=CCn1c(=O)c2ccccc2n(Cc2ccccc2)c1=O` [24a, 3-Allyl-1-benzylquinazoline-2,4-dione], the EC50 in [1] and in data set [6] was 100 µM in each case. For the same compound, the MIC in data set [2] was 5000 µg/mL (≈ 17.1 mM); in data set [3] (setting [11]) it was 2500 µg/mL (≈ 8.55 mM); in data set [4], 2500 µg/mL (≈ 8.55 mM); in data set [5], 5000 µg/mL (≈ 17.1 mM); in data set [7], 5000 µg/mL (≈ 17.1 mM); in data set [8] it was over 5000 µg/mL. Moreover, the MIC in data set [10] stood at 5000 µg/mL (≈ 17.1 mM). Further, in data set [8], the MBC is over 5000 µg/mL. Besides, the “Cytotoxicity Cell Morphology MCC” value in data set [9] was over 100 μM.
Turning to `C=CCn1c(=O)c2ccccc2n(Cc2ccccc2F)c1=O` [24b, 3-Allyl-1-(2-fluorobenzyl)quinazoline-2,4-dione], the EC50 is 64.5 µM in [1] and over 100 µM in [6]. Besides, the MIC was 5000 µg/mL (≈ 16.1 mM) in data set [2]; 2500 µg/mL (≈ 8.06 mM) in data set [3] (setting [11]); 2500 µg/mL (≈ 8.06 mM) in [4]; 2500 µg/mL (≈ 8.06 mM) in data set [5]; 5000 µg/mL (≈ 16.1 mM) in data set [7]; over 5000 µg/mL in data set [8]. The minimum inhibitory concentration (MIC) in data set [10] worked out at 5000 µg/mL (≈ 16.1 mM). The compound also gave a minimum bactericidal concentration (MBC) in [8] of over 5000 µg/mL. Moreover, in data set [9], the “Cytotoxicity Cell Morphology MCC” value is over 100 μM.
Regarding `C=CCn1c(=O)c2ccccc2n(Cc2cccc(F)c2)c1=O` [24c, 3-Allyl-1-(3-fluorobenzyl)quinazoline-2,4-dione], the EC50 in [1] and in data set [6] was over 100 µM each time. The minimal inhibitory concentration (MIC) in data set [2] is 5000 µg/mL (≈ 16.1 mM); in data set [3] (ATCC25922), 1250 µg/mL (≈ 4.03 mM); in data set [3] (setting [11]), 1250 µg/mL (≈ 4.03 mM); in data set [4] it was 2500 µg/mL (≈ 8.06 mM); in data set [5], 5000 µg/mL (≈ 16.1 mM); in data set [7] it was 2500 µg/mL (≈ 8.06 mM). In addition, the results for the MIC in data set [8] and in [10] were over 5000 µg/mL and 5000 µg/mL (≈ 16.1 mM), respectively. Moreover, the MBC in [8] was over 5000 µg/mL. Moreover, the “Cytotoxicity Cell Morphology MCC” value in data set [9] is over 100 μM.
Turning to `C=CCn1c(=O)c2ccccc2n(Cc2ccc(F)cc2)c1=O` [24d, 3-Allyl-1-(4-fluorobenzyl)quinazoline-2,4-dione], the EC50 in [1] was over 20 µM; in data set [6] it was 54.7 µM. Moreover, the minimum inhibitory concentration (MIC) in data set [2] is 5000 µg/mL (≈ 16.1 mM); in data set [3] (setting [11]), 2500 µg/mL (≈ 8.06 mM); in data set [4] it was 2500 µg/mL (≈ 8.06 mM); in [5], 5000 µg/mL (≈ 16.1 mM); in data set [7] it was 2500 µg/mL (≈ 8.06 mM); in data set [8], over 5000 µg/mL. Besides, in data set [10], the MIC was determined as 5000 µg/mL (≈ 16.1 mM). Also, the MBC in [8] is over 5000 µg/mL. Moreover, in data set [9], the “Cytotoxicity Cell Morphology MCC” value is 100 μM.

The values above are taken from article PMC9571433, “Design, Synthesis, Anti-Varicella-Zoster and Antimicrobial Activity of (Isoxazolidin-3-yl)Phosphonate Conjugates of N1-Functionalised Quinazoline-2,4-Diones” (Molecules, 2022).
